Test results from patent US7163946B2 (Ligand Pharmaceuticals Incorporated, priority 2002, dated 2007).
Like-named read-outs stand apart in the source and are kept apart here.

Legend:
Format in all cases: cell-based
[1] = target: T1, human androgen receptor (hAR) (Homo sapiens, UniProt P10275); test: hAR cotransfection assay (potency ratio to hPR); conditions: receptor-selectivity potency ratio, cotransfection assays
T1 sequence (P10275 1-920): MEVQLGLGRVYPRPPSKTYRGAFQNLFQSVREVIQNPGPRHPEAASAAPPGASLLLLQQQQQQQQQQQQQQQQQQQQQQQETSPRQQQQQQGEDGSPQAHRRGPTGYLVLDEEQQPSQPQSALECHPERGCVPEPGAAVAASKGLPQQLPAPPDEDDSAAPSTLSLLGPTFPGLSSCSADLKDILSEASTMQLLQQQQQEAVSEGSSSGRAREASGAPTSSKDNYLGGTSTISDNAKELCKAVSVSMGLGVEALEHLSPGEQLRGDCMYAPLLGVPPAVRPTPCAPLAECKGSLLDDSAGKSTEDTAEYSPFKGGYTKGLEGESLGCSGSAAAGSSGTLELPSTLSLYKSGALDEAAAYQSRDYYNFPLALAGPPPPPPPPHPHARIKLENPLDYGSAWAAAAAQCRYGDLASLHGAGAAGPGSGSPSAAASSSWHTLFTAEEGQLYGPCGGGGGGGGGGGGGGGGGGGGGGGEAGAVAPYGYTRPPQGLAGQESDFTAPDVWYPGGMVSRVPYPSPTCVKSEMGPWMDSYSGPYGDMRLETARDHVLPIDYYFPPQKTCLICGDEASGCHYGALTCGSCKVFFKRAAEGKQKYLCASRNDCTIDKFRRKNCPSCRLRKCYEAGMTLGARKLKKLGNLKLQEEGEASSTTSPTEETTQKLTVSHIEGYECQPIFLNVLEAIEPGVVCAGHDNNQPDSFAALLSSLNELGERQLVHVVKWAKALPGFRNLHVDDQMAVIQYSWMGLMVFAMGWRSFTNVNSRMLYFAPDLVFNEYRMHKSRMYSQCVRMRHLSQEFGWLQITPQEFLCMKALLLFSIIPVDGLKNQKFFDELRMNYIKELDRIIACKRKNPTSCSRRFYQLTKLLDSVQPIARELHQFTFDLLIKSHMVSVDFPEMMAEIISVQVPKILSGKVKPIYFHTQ
Method: (§1) Antagonist efficacy was determined as a function (%) of maximal inhibition of a reference agonist at EC50 concentration. All the cotransfection experiments were carried out in 96-well plates by automation (Beckman Biomomek automated workstation).

hPR [2] = target: T2, hPR (Homo sapiens, UniProt P06401); test: hPR cotransfection assay in CV-1 cells, antagonist mode; conditions: for Emax: CV-1, CV-1 cells, maximal inhibition of reference agonist at EC50 concentration, read-out: hPR Antagonist CV-1 Cells Eff. (%); for IC50: CV-1 cells
T2 sequence (P06401 1-933): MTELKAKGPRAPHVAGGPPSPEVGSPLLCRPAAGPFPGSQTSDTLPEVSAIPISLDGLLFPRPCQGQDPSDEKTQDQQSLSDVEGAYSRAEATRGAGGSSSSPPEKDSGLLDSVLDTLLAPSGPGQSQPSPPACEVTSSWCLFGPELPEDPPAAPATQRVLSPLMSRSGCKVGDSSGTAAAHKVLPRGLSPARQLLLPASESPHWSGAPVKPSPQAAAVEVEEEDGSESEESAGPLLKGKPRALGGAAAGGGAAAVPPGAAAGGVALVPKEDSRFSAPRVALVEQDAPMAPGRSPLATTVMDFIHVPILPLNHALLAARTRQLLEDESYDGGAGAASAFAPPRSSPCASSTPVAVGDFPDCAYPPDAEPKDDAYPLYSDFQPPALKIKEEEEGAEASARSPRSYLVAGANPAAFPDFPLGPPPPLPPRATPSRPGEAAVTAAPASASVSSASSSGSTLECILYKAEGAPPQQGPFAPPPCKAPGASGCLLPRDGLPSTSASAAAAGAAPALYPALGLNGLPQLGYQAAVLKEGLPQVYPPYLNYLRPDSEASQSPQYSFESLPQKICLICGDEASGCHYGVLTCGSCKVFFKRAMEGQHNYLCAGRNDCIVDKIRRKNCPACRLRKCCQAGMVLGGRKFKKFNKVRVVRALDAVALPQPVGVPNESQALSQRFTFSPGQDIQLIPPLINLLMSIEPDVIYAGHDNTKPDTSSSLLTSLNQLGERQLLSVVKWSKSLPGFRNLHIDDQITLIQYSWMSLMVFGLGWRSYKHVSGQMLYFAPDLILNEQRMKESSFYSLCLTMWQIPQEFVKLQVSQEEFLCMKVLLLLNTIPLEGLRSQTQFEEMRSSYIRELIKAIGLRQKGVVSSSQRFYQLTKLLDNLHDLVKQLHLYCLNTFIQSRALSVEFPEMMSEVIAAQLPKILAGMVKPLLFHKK
Method: as §1

hPR [3] = target: T2, hPR; test: hPR cotransfection assay in CV-1 cells, agonist mode; conditions: for Emax: CV-1, CV-1 cells, relative to maximal response of progesterone as 100%, read-out: hPR Agonist CV-1 Cells Eff. (%)
Method: as §1

[4] = target: T3, human mineralocorticoid receptor (hMR) (Homo sapiens, UniProt P08235); test: hMR cotransfection assay (potency ratio to hPR); conditions: receptor-selectivity potency ratio, cotransfection assays
T3 sequence (P08235 1-984): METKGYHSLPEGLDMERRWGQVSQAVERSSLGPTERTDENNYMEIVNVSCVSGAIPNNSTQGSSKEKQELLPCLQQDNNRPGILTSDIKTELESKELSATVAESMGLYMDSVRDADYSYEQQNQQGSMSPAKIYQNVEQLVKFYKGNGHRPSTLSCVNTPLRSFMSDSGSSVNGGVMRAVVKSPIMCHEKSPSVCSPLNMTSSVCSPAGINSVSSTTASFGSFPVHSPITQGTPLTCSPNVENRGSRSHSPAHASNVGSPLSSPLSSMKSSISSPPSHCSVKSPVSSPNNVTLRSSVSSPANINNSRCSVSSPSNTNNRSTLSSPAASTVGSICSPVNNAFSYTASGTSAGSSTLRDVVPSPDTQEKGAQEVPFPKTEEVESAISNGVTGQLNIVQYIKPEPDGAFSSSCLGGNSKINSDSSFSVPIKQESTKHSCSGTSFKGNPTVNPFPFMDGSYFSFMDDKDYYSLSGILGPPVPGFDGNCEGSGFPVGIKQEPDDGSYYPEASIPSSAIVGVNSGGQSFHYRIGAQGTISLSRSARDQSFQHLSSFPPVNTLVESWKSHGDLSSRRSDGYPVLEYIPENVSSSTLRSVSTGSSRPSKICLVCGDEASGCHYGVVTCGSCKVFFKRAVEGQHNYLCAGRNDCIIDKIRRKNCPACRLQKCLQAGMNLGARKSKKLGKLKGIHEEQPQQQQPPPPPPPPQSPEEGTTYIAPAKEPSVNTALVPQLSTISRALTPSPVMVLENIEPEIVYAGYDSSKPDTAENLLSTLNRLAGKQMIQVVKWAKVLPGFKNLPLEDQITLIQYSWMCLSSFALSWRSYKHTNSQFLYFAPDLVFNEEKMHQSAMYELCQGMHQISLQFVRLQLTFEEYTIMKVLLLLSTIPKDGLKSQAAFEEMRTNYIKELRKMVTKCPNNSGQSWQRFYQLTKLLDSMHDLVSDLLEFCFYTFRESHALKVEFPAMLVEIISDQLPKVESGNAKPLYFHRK
Method: as §1

[5] = CV-1 cells, read-out: hPR Agonist CV-1 Cells EC50
[6] = Tables 3 and 4, values without footnote, read-out: hPR agonist potencies (EC50 in nM) in the cotransfection assay

Row | Structure (SMILES) | hAR EC50 or IC50/hPR EC50 [1] | Emax (hPR [2]) [%] | IC50 (hPR [2]) [nM] | Emax (hPR [3]) [%] | EC50 (hPR [3]; [5]) [nM] | EC50 (hPR [3]; [6]) [nM] | hMR EC50 or IC50/hPR EC50 [4]
1 | CC1=CC(C)(C)Nc2ccc3c(c21)C(c1ccccc1)Oc1c(F)cc(F)cc1-3 (racemic) [Compound 33, (±)-7,9-difluoro-5-phenyl-1,2-dihydro-2,2,4-trimethyl-5H-chromeno[3,4-f]quinoline] | 37 | < 20 | > 10000 | 85 | 3.5 | 3.5 | >1000
2 | CC1=CC(C)(C)Nc2ccc3c(c21)C(c1cccc(C)c1)Oc1c(F)cc(F)cc1-3 (racemic) [Compound 34, (±)-7,9-difluoro-5-(3-methylphenyl)-1,2-dihydro-2,2,4-trimethyl-5H-chromeno[3,4-f]quinoline] | 8.5 | < 20 | > 10000 | 114 | 1.2 | 1.2 | >1000
3 | CC1=CC(C)(C)Nc2ccc3c(c21)C(c1ccc(Cl)c(C)c1)Oc1c(F)cc(F)cc1-3 (racemic) [Compound 37, (±)-7,9-difluoro-5-(4-chloro-3-methylphenyl)-1,2-dihydro-2,2,4-trimethyl-5H-chromeno[3,4-f]quinoline] | 558 | < 20 | > 10000 | 89 | 1.24 | 1.24 | >1000
4 | CC1=CC(C)(C)Nc2ccc3c(c21)C(c1cccc(Cl)c1)Oc1c(F)cc(F)cc1-3 (racemic) [Compound 41, (±)-7,9-difluoro-5-(3-chlorophenyl)-1,2-dihydro-2,2,4-trimethyl-5H-chromeno[3,4-f]quinoline] | 252 | < 20 | > 10000 | 146 | 1.87 | 1.87 | 905
5 | CC1=CC(C)(C)Nc2ccc3c(c21)C(c1cc2ccccc2s1)Oc1c(F)cc(F)cc1-3 (racemic) [Compound 63, (±)-7,9-difluoro-5-(benzo[b]thien-2-yl)-1,2-dihydro-2,2,4-trimethyl-5H-chromeno[3,4-f]quinoline] | 136 | < 20 | > 10000 | 154 | 2.3 | – | >1000
6 | CC#CC1Oc2c(F)cc(F)cc2-c2ccc3c(c21)C(C)=CC(C)(C)N3 (racemic) [Compound 74, (±)-7,9-difluoro-5-(1-propynyl)-1,2-dihydro-2,2,4-trimethyl-5H-chromeno[3,4-f]quinoline] | 100 | < 20 | > 10000 | 89 | 0.7 | – | >1000
7 | CC1=CC(C)(C)Nc2ccc3c(c21)/C(=C/c1ccccc1)Oc1c(F)cc(F)cc1-3 [Compound 10, 7,9-difluoro-5(Z)-benzylidene-1,2-dihydro-2,2,4-trimethyl-5H-chromeno[3,4-f]quinoline] | 320 | < 20 | > 10000 | 153 | 4.9 | 4.9 | >1000
8 | CC1=CC(C)(C)Nc2ccc3c(c21)/C(=C/c1ccncc1)Oc1c(F)cc(F)cc1-3 [Compound 14, 7,9-difluoro-5(Z)-(4-picolylidene)-1,2-dihydro-2,2,4-trimethyl-5H-chromeno[3,4-f]quinoline] | 54 | < 20 | > 10000 | 103 | 7.4 | 7.4 | >1000
9 | CC1=CC(C)(C)Nc2ccc3c(c21)/C(=C/c1cccc(F)c1)Oc1c(F)cc(F)cc1-3 [Compound 15, 7,9-difluoro-5(Z)-(3-fluorobenzylidene)-1,2-dihydro-2,2,4-trimethyl-5H-chromeno[3,4-f]quinoline] | 2 | < 20 | > 10000 | 191 | 3.8 | 3.8 | >1000
